Measurements taken from ChEMBL document CHEMBL1687942, “Benzimidazole inhibitors induce a DFG-out conformation of never in mitosis gene A-related kinase 2 (Nek2) without binding to the back pocket and reveal a nonlinear structure-activity relationship” (J Med Chem, 2011).
Active and inactive are the calls of the source. No cut-off for these calls is given here.

How the values were obtained:
[1] = target: T1, Serine/threonine-protein kinase PLK1 (Homo sapiens, UniProt P53350); assay: Inhibition of polo-like kinase 1 activity
T1 sequence (P53350 whole entry): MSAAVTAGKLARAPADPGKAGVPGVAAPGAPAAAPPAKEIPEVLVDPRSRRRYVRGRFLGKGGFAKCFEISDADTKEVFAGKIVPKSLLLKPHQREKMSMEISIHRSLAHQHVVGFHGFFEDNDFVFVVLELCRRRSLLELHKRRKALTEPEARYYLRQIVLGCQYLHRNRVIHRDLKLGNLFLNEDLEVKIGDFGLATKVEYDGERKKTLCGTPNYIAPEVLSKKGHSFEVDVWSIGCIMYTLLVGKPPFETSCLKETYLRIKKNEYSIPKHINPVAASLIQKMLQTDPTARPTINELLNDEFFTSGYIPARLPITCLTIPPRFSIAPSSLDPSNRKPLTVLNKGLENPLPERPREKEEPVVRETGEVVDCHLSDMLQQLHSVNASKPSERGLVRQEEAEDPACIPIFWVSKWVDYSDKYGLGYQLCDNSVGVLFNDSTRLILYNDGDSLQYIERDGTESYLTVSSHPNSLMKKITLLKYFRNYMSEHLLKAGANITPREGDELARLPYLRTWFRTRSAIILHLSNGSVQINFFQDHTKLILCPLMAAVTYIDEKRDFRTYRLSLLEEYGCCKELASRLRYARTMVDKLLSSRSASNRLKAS

[2] = Apparent permeability of the compound by PAMPA at pH 7.4
[3] = target: T2, Serine/threonine-protein kinase Nek2 (Homo sapiens, UniProt P51955)
T2 sequence (P51955 whole entry): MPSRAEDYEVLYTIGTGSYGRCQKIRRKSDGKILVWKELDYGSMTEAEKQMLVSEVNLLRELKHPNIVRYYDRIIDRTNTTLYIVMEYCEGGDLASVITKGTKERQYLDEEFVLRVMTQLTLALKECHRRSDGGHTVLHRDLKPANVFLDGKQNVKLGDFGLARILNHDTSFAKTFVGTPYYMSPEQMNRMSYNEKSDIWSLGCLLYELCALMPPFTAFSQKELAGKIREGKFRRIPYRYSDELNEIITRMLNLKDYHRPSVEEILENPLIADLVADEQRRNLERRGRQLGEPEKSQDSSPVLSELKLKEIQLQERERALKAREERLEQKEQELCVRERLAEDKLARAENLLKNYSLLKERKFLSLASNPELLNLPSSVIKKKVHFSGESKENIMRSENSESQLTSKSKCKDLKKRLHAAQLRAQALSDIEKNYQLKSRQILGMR

[4] = target: T1, Serine/threonine-protein kinase PLK1; details: 200 uM
Description: Inhibition of polo-like kinase 1 activity at 200 uM

[5] = target: T2, Serine/threonine-protein kinase Nek2; assay: Inhibition of NEK2 autophosphorylation preincubated with compound by DELFIA assay
[6] = target: T2, Serine/threonine-protein kinase Nek2; assay: Inhibition of NEK2 assessed as inhibition of substrate phosphorylation preincubated for 5 mins before addition of substrate by DELFIA assay
[7] = target: Tyrosine-protein kinase ABL1 (Mus musculus) (UniProt P00520); assay: Inhibition of mouse Abl at 2 uM
Tyrosine-protein kinase ABL1 (Mus musculus), sequence (P00520 whole entry): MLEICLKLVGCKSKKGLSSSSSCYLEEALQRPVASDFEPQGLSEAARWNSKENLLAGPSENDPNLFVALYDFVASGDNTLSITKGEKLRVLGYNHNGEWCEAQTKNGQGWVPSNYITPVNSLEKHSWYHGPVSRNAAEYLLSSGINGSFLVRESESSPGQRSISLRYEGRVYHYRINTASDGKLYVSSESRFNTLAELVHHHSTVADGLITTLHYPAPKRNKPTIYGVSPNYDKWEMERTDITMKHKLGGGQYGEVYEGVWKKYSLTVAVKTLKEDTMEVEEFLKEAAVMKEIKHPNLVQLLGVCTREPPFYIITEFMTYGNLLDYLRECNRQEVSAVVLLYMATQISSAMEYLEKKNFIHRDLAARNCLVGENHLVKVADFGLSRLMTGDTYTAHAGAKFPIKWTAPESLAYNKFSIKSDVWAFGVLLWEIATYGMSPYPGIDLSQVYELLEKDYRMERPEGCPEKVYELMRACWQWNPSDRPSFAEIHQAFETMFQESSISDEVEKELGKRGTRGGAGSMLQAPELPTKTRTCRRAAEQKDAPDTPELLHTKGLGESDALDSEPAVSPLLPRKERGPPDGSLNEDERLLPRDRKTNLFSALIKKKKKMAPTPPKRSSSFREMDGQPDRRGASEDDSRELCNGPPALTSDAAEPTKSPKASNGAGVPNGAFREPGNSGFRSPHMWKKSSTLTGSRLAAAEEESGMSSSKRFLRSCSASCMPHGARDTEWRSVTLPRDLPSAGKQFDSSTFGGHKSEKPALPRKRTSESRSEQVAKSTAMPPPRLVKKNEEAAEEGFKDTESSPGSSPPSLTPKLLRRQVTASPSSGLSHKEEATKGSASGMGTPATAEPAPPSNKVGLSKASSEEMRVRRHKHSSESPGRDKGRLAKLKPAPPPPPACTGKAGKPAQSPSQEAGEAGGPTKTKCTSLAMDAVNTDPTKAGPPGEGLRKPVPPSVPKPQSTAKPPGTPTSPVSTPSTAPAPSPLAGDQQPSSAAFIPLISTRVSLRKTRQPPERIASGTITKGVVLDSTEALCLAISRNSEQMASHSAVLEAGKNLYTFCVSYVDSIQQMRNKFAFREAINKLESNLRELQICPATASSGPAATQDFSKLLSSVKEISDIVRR

[8] = target: T1, Serine/threonine-protein kinase PLK1; assay: Inhibition of polo-like kinase 1 activity at 100 uM
[9] = target: T3, Serine/threonine-protein kinase Nek2 (Homo sapiens) (UniProt P51955); assay: Inhibition of NEK2 at 200 uM
T3 sequence (whole entry): T2 sequence (P51955 whole entry)

IC50 [1] [nM]	IC50 [3] [nM]	Compound	other results
< 9	–	CN1CCC(Oc2ccc3ncn(-c4cc(OCc5ccccc5C(F)(F)F)c(C(N)=O)s4)c3c2)CC1	–
51300	–	C[C@@H](Oc1cc(-n2cnc3cc(OC4CCN(C)CC4)ccc32)ccc1C(N)=O)c1ccccc1C(F)(F)F	Papp [2]: 33.4 ×10⁻⁶ cm/s
69	5430	CN1CCC(Oc2ccc3ncn(-c4cc(OCc5ccccc5)c(C(N)=O)s4)c3c2)CC1	–
1330	64400	COc1cc(-n2cnc3ccc(OC4CCN(C)CC4)cc32)sc1C(N)=O	–
5310	86000	COc1cc(-n2cnc3ccccc32)sc1C(N)=O	–
–	–	C[C@H](Oc1cc(-n2cnc3cc(OC4CCN(C)CC4)ccc32)ccc1C(N)=O)c1ccccc1C(F)(F)F	inhibition [4]: inactive
–	–	CC(Oc1cc(-n2cnc3ccc(OC4CCN(C)CC4)cc32)sc1C(N)=O)c1ccccc1C(F)(F)F (racemic)	IC50 [5]: 50 nM; IC50 [6]: 200 nM
66	6570	CC(Oc1cc(-n2cnc3ccc(OC4CCN(C)CC4)cc32)sc1C(N)=O)c1ccccc1 (racemic)	–
< 9	> 50000	CC(Oc1cc(-n2cnc3ccccc32)sc1C(N)=O)c1ccccc1C(F)(F)F (racemic)	–
190	660	CC(Oc1cc(-n2cnc3ccc(OC4CCN(C)CC4)cc32)ccc1C(N)=O)c1ccccc1C(F)(F)F (racemic)	–
87900	–	CC(Oc1cc(-n2cnc3cc(OC4CCN(C)CC4)ccc32)ccc1C(N)=O)c1ccccc1C(F)(F)F (racemic)	inhibition [7]: Active
15200	380	CC(Oc1cc(-n2cnc3cc(OCCCN(C)C)ccc32)ccc1C(N)=O)c1ccccc1C(F)(F)F (racemic)	–
–	2560	CC(Oc1cc(-n2cnc3cc(OC4CCN(C5CC5)CC4)ccc32)ccc1C(N)=O)c1ccccc1C(F)(F)F (racemic)	inhibition [8]: inactive
–	–	CC(Oc1cc(-n2cnc3cc(OC4CCCCC4)ccc32)ccc1C(N)=O)c1ccccc1C(F)(F)F (racemic)	inhibition [9]: inactive; inhibition [8]: inactive
